Laboratory results as given in patent US4912199A, “Oligopeptide anticancer and antiviral agents” (The Governors of the University of Alberta, priority 1987, dated 1990).
Values after ≈ are worked out from the molar mass of the structure shown. Like-named read-outs stand apart in the source and are kept apart here.

Key:
[1] = tested on: MOLT/4F human T lymphoblast; assay: Anticancer properties, 50% cell kill (ID50); type: cell-based
RAJI human B lymphoblast = assay: Anticancer properties, 50% cell kill (ID50); type: cell-based
Description: RAJI human B lymphoblast
FIG. 1 relates to such acitivity for the cell line MOLT/4F, human T lymphoblast. FIG. 2 related to the tumor cell lines of Raji, human B lymphoblast; all values being expressed in ID50 values in arbitrary units. […] The general formula for the compounds of this invention as tested in FIGS. 1 and 2 are of formula I, wherein A is represented by: [drawing 14] m is 1; n is 1 and Het is pyrrole, R is represented by the formula COk --(CH2)l --CO where l is equal to 0, 1, 2, 3, 4, 5, 6, 7 or 8 and k is equal to 0 or 1.

[2] = tested on: FM3A murine mammary tumor; assay: Anticancer properties, 50% cell kill (ID50); type: cell-based
P388 murine leukemia = assay: Antileukemic properties, ID50 vs P388 leukemia; type: cell-based; settings: 25,000 cells per well; 72 hours incubation at 37° C.
Protocol: The compounds of the following Table 3 were prepared in accordance with processes of this invention.

L1210 murine Leukemia = assay: Anticancer properties, 50% cell kill (ID50); type: cell-based
Herpes-2 = assay: Antiviral test, minimum inhibitory concentration in primary rabbit kidney cell cultures; type: cell-based; settings: 50% kill of the viruses in primary rabbit kidney cell cultures
[3] = tested on: primary rabbit kidney cell cultures; assay: Minimal cytotoxic concentration in the antiviral test
Protocol: The antiviral properties of the compounds listed in Table 1 were tested to determine the minimum inhibitory concentration to achieve a 50% kill of the viruses in primary rabbit kidney cell cultures.

Vaccinia = type: cell-based, vaccinia virus; settings: for minimum inhibitory concentration against vaccinia virus: text of Examples 3(A) and 3(B), hydrochloride
Herpes simplex-1 = assay: Antiviral test, minimum inhibitory concentration in primary rabbit kidney cell cultures; type: cell-based; settings: 50% kill of the viruses in primary rabbit kidney cell cultures
[4] = 50% kill of the viruses in primary rabbit kidney cell cultures

Structure (SMILES)	Minimum Inhibitory Conc. RAJI (ID50) (RAJI human B lymphoblast) [µg/mL]	Minimum Inhibitory Conc. FM3A (ID50) [2] [µg/mL]	ID50 vs P388 leukemia (P388 murine leukemia) [µg/mL]	Minimum Inhibitory Conc. L1210 (ID50) (L1210 murine Leukemia) [µg/mL]	Minimum Inhibitory Conc. Herpes-2 (Herpes-2) [µg/mL]	Minimal Cytotoxic Conc. [3] [μg/m]	Minimum Inhibitory Conc. Vaccinia (Vaccinia; [4]) [µg/mL]	Minimum Inhibitory Conc. Herpes simplex-1 (Herpes simplex-1) [µg/mL]	also measured
Cl.Cl.Cn1cc(NC(=O)c2cc(NC(=O)CC(=O)Nc3cc(C(=O)Nc4cc(C(=O)NCCC(=N)N)n(C)c4)n(C)c3)cn2C)cc1C(=O)NCCC(=N)N [m=1 n=1 R = COCH2CO]	3.39 ± 0.69	5.87 ± 2.23	0.91	28.5 ± 9.7					Minimum Inhibitory Conc. MOLT/4F (ID50) [1]: 2.85 ± 0.6 µg/mL
Cl.Cl.Cn1cc(NC(=O)c2cc(NC(=O)/C=C/C(=O)Nc3cc(C(=O)Nc4cc(C(=O)NCCC(=N)N)n(C)c4)n(C)c3)cn2C)cc1C(=O)NCCC(=N)N [m=1 n=1 R = COCH CHCO (trans)]					10	≥ 40	2		
Cl.Cn1cc(NC(=O)c2cc(NC(=O)C[N+](C)(C)C)cn2C)cc1C(=O)NCCC(=N)N.[Cl-] [Example 3(A), 1-Methyl-4-(1-methyl-4-trimethylammonium-acetamidopyrrole-2-carboxamido)pyrrole-2-carboxamidopropionamidine chloride hydrochloride]									minimum inhibitory concentration against vaccinia virus (Vaccinia): 20 µg/mL
Cn1cc(NC(=O)c2cc(NC(=O)c3cc(NC=O)cn3C)cn2C)cc1C(=O)NCCC(=N)N [Distamycin, distamycin, reference compound]	23.7 ± 3.69	30.6 ± 2.4	20 (≈ 41.5 µM)	27.1 ± 4.7	70			70	Minimal Cytotoxic Conc. ([3]; primary rabbit kidney cell cultures): 200 μg/m; Minimum Inhibitory Conc. Vaccinia (Vaccinia): 0.2 µg/mL
Cl.Cl.Cn1cc(NC(=O)c2cc(NC(=O)CCCCCC(=O)Nc3cc(C(=O)Nc4cc(C(=O)NCCC(=N)N)n(C)c4)n(C)c3)cn2C)cc1C(=O)NCCC(=N)N [m=1 n=1 l=5 k=1]			4.4						
Cl.Cl.Cn1cc(NC(=O)c2cc(NC(=O)c3cc(NC(=O)CCC(=O)Nc4cc(C(=O)Nc5cc(C(=O)Nc6cc(C(=O)NCCC(=N)N)n(C)c6)n(C)c5)n(C)c4)cn3C)cn2C)cc1C(=O)NCCC(=N)N [m=1 n=2 R = CO(CH2)2 CO]	4.14 ± 8.4	4.29 ± 1.12		> 100	4	≥ 40	4	4	Minimum Inhibitory Conc. MOLT/4F (ID50) [1]: 100 µg/mL
Cl.Cl.Cn1cc(NC(=O)c2cc(NC(=O)CCCCCCCCC(=O)Nc3cc(C(=O)Nc4cc(C(=O)NCCC(=N)N)n(C)c4)n(C)c3)cn2C)cc1C(=O)NCCC(=N)N [m=1 n=1 R = CO[CH2]8CO]	3.34 ± 0.44	22.1 ± 11.1	0.98	4.21 ± 1.52					Minimum Inhibitory Conc. MOLT/4F (ID50) [1]: 2.97 ± 0.4 µg/mL
Cl.Cl.Cn1cc(NC(=O)c2cc(NC(=O)CCCCC(=O)Nc3cc(C(=O)Nc4cc(C(=O)NCCC(=N)N)n(C)c4)n(C)c3)cn2C)cc1C(=O)NCCC(=N)N [m=1 n=1 l=4 k=1]			1.05						
Cl.Cl.Cn1cc(NC(=O)c2cc(NC(=O)CCCC(=O)Nc3cc(C(=O)Nc4cc(C(=O)NCCC(=N)N)n(C)c4)n(C)c3)cn2C)cc1C(=O)NCCC(=N)N [m=1 n=1 l=3 k=1]			6.4						
Cl.Cn1cc(NC(=O)c2cc(NC(=O)C[N+](C)(C)C)cn2C)cc1C(=O)NCCC(=N)N.[Cl-] [3(B), 1-Methyl-4-(1-methyl-4-trimethylammonium-acetamidopyrrole-2-carboxamido)pyrrole-2-carboxamidopropionamidine chloride hydrochloride]									minimum inhibitory concentration against vaccinia virus (Vaccinia): 300 µg/mL
Cl.Cl.Cn1cc(NC(=O)c2cc(NC(=O)Nc3cc(C(=O)Nc4cc(C(=O)NCCC(=N)N)n(C)c4)n(C)c3)cn2C)cc1C(=O)NCCC(=N)N [m=1 n=1 l=0 k=0]			8.0						
Cl.Cl.Cn1cc(NC(=O)c2cc(NC(=O)CCCCCCC(=O)Nc3cc(C(=O)Nc4cc(C(=O)NCCC(=N)N)n(C)c4)n(C)c3)cn2C)cc1C(=O)NCCC(=N)N [m=1 n=1 R = CO(CH2)6 CO]			0.70		10	≥ 10	0.2	10	
Cl.Cl.Cn1cc(NC(=O)c2cc(NC(=O)CCCCCCCC(=O)Nc3cc(C(=O)Nc4cc(C(=O)NCCC(=N)N)n(C)c4)n(C)c3)cn2C)cc1C(=O)NCCC(=N)N [m=1 n=1 R = CO(CH2)7 CO]			0.75		40	≥ 100	0.2	40	
